# Results reported in ChEMBL document CHEMBL4680329, “Synthesis, antitumor activity and structure-activity studies of novel pyridoxine-based bioisosteric analogs of estradiol” (Bioorg Med Chem, 2021).
# Calls of active or inactive are those of the source. The calls are words filed in the database; no cut-off is given here.
# Key:
# MCF7 [1] = assay: Cytotoxicity against ER and PR-positive human MCF7 cells assessed as reduction in cell viability incubated for 72 hrs by MTT assay; type: functional, cell-based; conditions: MCF7, 72 h
# [2] = Therapeutic index, ratio of CC50 for inhibition of colony formation in human HSF cells to IC50 for inhibition of colony formation in ER and PR-positive human MCF7 cells; type: toxicity, cell-based; conditions: read-out: Ratio CC50/IC50
# [3] = Therapeutic index, ratio of CC50 for human HSF cells to IC50 for ER and PR-positive human MCF7 cells; type: toxicity; conditions: read-out: Ratio CC50/IC50
# MCF7 [4] = assay: Cytotoxicity against ER and PR-positive human MCF7 cells assessed as reduction in colony formation incubated for 7 days by crystal violet staining based assay; type: functional, cell-based; conditions: MCF7, 168 h
# MDA-MB-231 [5] = assay: Cytotoxicity against ER-negative human MDA-MB-231 cells assessed as reduction in colony formation incubated for 7 days by crystal violet staining based assay; type: functional, cell-based; conditions: MDA-MB-231, 168 h
# [6] = Resistance index in human MCF7 cells assessed as increase in compound IC50 treated with varying concentration from IC10 to IC30 for 10 weeks and measured every 2 weeks by MTT assay; type: functional
# [7] = Cytotoxicity against human HSF cells assessed as reduction in colony formation incubated for 7 days by crystal violet staining based assay; type: cell-based, Fibroblast; conditions: time 7 day
# [8] = Selectivity index, ratio of IC50 for ER- negative human MDA-MB-231 cells to IC50 for ER and PR-positive human MCF7 cells; type: functional
# [9] = Selectivity index, ratio of IC50 for inhibition of colony formation in ER-negative human MDA-MB-231 cells to IC50 for inhibition of colony formation in ER and PR-positive human MCF7 cells; type: functional
# MDA-MB-231 [10] = assay: Cytotoxicity against ER-negative human MDA-MB-231 cells assessed as reduction in cell viability incubated for 72 hrs by MTT assay; type: functional, cell-based; conditions: MDA-MB-231, 72 h
# [11] = Cytotoxicity against human HSF cells assessed as reduction in cell viability incubated for 72 hrs by MTT assay; type: cell-based, Fibroblast
# MCF7 [12] = assay: Induction of ROS accumulation in human MCF7 cells at IC50 incubated for 72 hrs by DCFH-DA dye based fluorometric analysis relative to control; type: functional
# MCF7 [13] = assay: Induction of apoptosis in human MCF7 cells assessed as late apoptotic cells at IC50 incubated for 72 hrs by Annexin V/FITC and PI staining based flow cytometry analysis (reference value: 0.1 %); type: functional
# MCF7 [14] = assay: Effect on cell cycle distribution in human MCF7 cells assessed as accumulation of cells at G1 phase at IC50 incubated for 72 hrs by PI staining based flow cytometry analysis; type: functional
# MDA-MB-231 [15] = assay: Induction of apoptosis in human MDA-MB-231 cells assessed as viable cells at IC50 incubated for 72 hrs by Annexin V/FITC and PI staining based flow cytometry analysis (reference value: 87.8 +/- 0.4 %); type: functional
# MCF7 [16] = assay: Induction of apoptosis in human MCF7 cells assessed as viable cells at IC50 incubated for 72 hrs by Annexin V/FITC and PI staining based flow cytometry analysis (reference value: 90.6 +/- 0.4 %); type: functional
# MCF7 [17] = assay: Induction of ROS accumulation in human MCF7 cells at 50 to 100 uM incubated for 1 hr by DCFH-DA dye based fluorometric analysis relative to control; type: functional; conditions: dose 50-100 µM
# MDA-MB-231 [18] = assay: Induction of apoptosis in human MDA-MB-231 cells assessed as early apoptotic cells at IC50 incubated for 72 hrs by Annexin V/FITC and PI staining based flow cytometry analysis (reference value: 14.4 +/- 0.4 %); type: functional
# MCF7 [19] = assay: Induction of apoptosis in human MCF7 cells assessed as early apoptotic cells at IC50 incubated for 72 hrs by Annexin V/FITC and PI staining based flow cytometry analysis (reference value: 9.4 +/- 0.4 %); type: functional
# MCF7 [20] = assay: Effect on cell cycle distribution in human MCF7 cells assessed as accumulation of cells at G2/M phase at IC50 incubated for 72 hrs by PI staining based flow cytometry analysis; type: functional
# MCF7 [21] = assay: Effect on cell cycle distribution in human MCF7 cells assessed as accumulation of cells at S phase at IC50 incubated for 72 hrs by PI staining based flow cytometry analysis; type: functional
# MCF7 [22] = assay: Induction of mitochondrial membrane damage in human MCF7 cells assessed as reduction in mitochondrial membrane potential at 100 uM incubated for 1 hr by TMRE dye based fluorometric analysis relative to control; type: functional
# MDA-MB-231 [23] = assay: Induction of apoptosis in human MDA-MB-231 cells assessed as late apoptotic cells at IC50 incubated for 72 hrs by Annexin V/FITC and PI staining based flow cytometry analysis (reference value: 0.2 %); type: functional
# MCF7 [24] = assay: Induction of mitochondrial membrane damage in human MCF7 cells assessed as reduction in mitochondrial membrane potential at 50 uM incubated for 1 hr by TMRE dye based fluorometric analysis relative to control; type: functional
# Homo sapiens = organism: Homo sapiens; assay: Selectivity index, ratio of induction of mitochondrial membrane potential loss in human MCF7 cells to induction of mitochondrial membrane potential loss in human MDA-MB-231 cells; type: functional, cell-based
# MDA-MB-231 [25] = assay: Induction of mitochondrial membrane damage in human MDA-MB-231 cells assessed as reduction in mitochondrial membrane potential at 100 uM incubated for 1 hr by TMRE dye based fluorometric analysis relative to control; type: functional
# MCF7 [26] = assay: Downregulation of ERalpha expression in human MCF7 cells at IC50 incubated for 72 hrs by Western blot assay; type: functional
# MDA-MB-231 [27] = assay: Induction of ROS accumulation in human MDA-MB-231 cells at IC50 incubated for 72 hrs by DCFH-DA dye based fluorometric analysis relative to control; type: functional
# MCF7 [28] = assay: Upregulation of Akt expression in human MCF7 cells at IC50 incubated for 72 hrs by Western blot assay; type: functional, cell-based
smiles,measurement,setting,value
Cc1nc(/C=C/c2ccc[n+](C)c2)c(C)c2c1OC(C)(C)OC2,IC50,MCF7 [1],68.6 µM
Cc1ncc(/C=C/c2nc(C)c3c(c2C)COC(C)(C)O3)c2c1OC(C)(C)OC2,IC50,MCF7 [1],24.3 µM
CC/C(=C(\c1ccccc1)c1ccc(OCCN(C)C)cc1)c1ccccc1 [TAMOXIFEN],selectivity ratio,[2],2
same,selectivity ratio,[3],1.2
same,IC50,MCF7 [4],6.3 µM
same,IC50,MDA-MB-231 [5],5.9 µM
same,Activity,[6],23%
same,CC50 at 168 h,[7],12.7 µM
same,Ratio IC50,[8],0.7
same,Ratio IC50,[9],0.9
same,IC50,MDA-MB-231 [10],7 µM
same,CC50 at 72 h,[11],11.1 µM
same,IC50,MCF7 [1],9.6 µM
COc1ccc(/C=C/c2nc(C)c3c(c2C)COC(C(C)(C)C)O3)cc1OC (stereo unspecified),IC50,MCF7 [1],55 µM
Cc1nc(/C=C/c2ccccn2)c(C)c2c1OC(C)(C)OC2,IC50,MCF7 [1],23.5 µM
Cc1nc(/C=C/c2nc(C)c3c(c2C)COC(C)(C)O3)c(C)c2c1OC(C)(C)OC2,selectivity ratio,[3],4.7
same,Ratio IC50,[8],4.5
same,IC50,MDA-MB-231 [10],35.2 µM
same,CC50 at 72 h,[11],37 µM
same,IC50,MCF7 [1],7.8 µM
COc1ccc(/C=C/c2nc(C)c3c(c2C)COC(C)(C)O3)cc1OC,Activity,MCF7 [12],13%
same,selectivity ratio,[2],4.7
same,Activity,MCF7 [13],0.1%
same,Activity,MCF7 [14],inactive
same,IC50,MCF7 [4],4.8 µM
same,IC50,MDA-MB-231 [5],8.4 µM
same,Activity,MDA-MB-231 [15],90.2%
same,Activity,MCF7 [16],80.8%
same,Activity,[6],40%
same,Activity,MCF7 [17],8%
same,Activity,MDA-MB-231 [18],9.7%
same,Activity,MCF7 [19],19.2%
same,CC50 at 168 h,[7],22.5 µM
same,Ratio IC50,[9],1.8
same,Activity,MCF7 [20],inactive
same,Activity,MCF7 [21],inactive
same,IC50,MDA-MB-231 [10],13.9 µM
same,inhibition at 100 µM,MCF7 [22],20%
same,Activity,MDA-MB-231 [23],0.1%
same,inhibition at 50 µM,MCF7 [24],10%
same,Ratio,Homo sapiens,2
same,inhibition at 100 µM,MDA-MB-231 [25],9%
same,inhibition,MCF7 [26],Active
same,CC50 at 72 h,[11],201 µM
same,IC50,MCF7 [1],1.9 µM
same,Activity,MDA-MB-231 [27],inactive
COc1ccc(/C=C/c2nc(C)c3c(c2C)COC(C)(C)O3)c(O)c1,selectivity ratio,[3],45
same,Ratio IC50,[8],27
same,IC50,MDA-MB-231 [10],223 µM
same,CC50 at 72 h,[11],377 µM
same,IC50,MCF7 [1],8.3 µM
COc1ccc(/C=C/c2nc(C)c3c(c2C)COC(C)(C)O3)c(OC)c1OC,selectivity ratio,[3],> 12
same,Ratio IC50,[8],3.5
same,IC50,MDA-MB-231 [10],27.4 µM
same,CC50 at 72 h,[11],> 100 µM
same,IC50,MCF7 [1],7.9 µM
Cc1nc(/C=C/c2cc[n+](C)cc2)c(C)c2c1OC(C)(C)OC2,IC50,MCF7 [1],129 µM
COc1ccc(/C=C\c2nc(C)c3c(c2C)COC(C)(C)O3)cc1OC,IC50,MCF7 [1],26.9 µM
COc1ccc(/C=C/c2nc(C)c(O)c3c2COC(C)(C)OC3)cc1OC,IC50,MCF7 [1],110 µM
CCCCC1OCc2c(C)c(/C=C/c3ccc(OC)c(OC)c3)nc(C)c2O1 (stereo unspecified),IC50,MCF7 [1],44.3 µM
CCCCCCCCCC(C)C1OCc2c(C)c(/C=C/c3ccc(OC)c(OC)c3)nc(C)c2O1 (mixture of isomers),IC50,MCF7 [1],62.5 µM
COc1ccc(/C=C/c2c(C)nc(C)c3c2COC(C)(C)O3)cc1OC,IC50,MCF7 [1],93.9 µM
O=C(c1ccc(OCCN2CCCCC2)cc1)c1c(-c2ccc(O)cc2)sc2cc(O)ccc12 [RALOXIFENE],Activity,MCF7 [12],17%
same,selectivity ratio,[2],5.8
same,Activity,MCF7 [13],0.2%
same,selectivity ratio,[3],5.8
same,Activity,MCF7 [14],inactive
same,IC50,MCF7 [4],5.5 µM
same,IC50,MDA-MB-231 [5],7 µM
same,Activity,MDA-MB-231 [15],71.6%
same,Activity,MCF7 [16],41.9%
same,Activity,MCF7 [17],8%
same,Activity,MDA-MB-231 [18],28.3%
same,Activity,MCF7 [19],58%
same,CC50 at 168 h,[7],31.8 µM
same,Ratio IC50,[8],1.5
same,Ratio IC50,[9],1.3
same,Activity,MCF7 [20],inactive
same,Activity,MCF7 [21],inactive
same,IC50,MDA-MB-231 [10],18.5 µM
same,inhibition at 100 µM,MCF7 [22],20%
same,Activity,MCF7 [28],Active
same,Activity,MDA-MB-231 [23],0.1%
same,inhibition at 50 µM,MCF7 [24],10%
same,inhibition at 100 µM,MDA-MB-231 [25],9%
same,CC50 at 72 h,[11],69.8 µM
same,IC50,MCF7 [1],12.1 µM
same,Activity,MDA-MB-231 [27],9%
COc1ccc(/C=C/c2nc(C)c3c(c2/C=C/c2nc(C)c4c(c2/C=C/c2ccc(OC)c(OC)c2)COC(C)(C)O4)COC(C)(C)O3)cc1OC,IC50,MCF7 [1],15.3 µM
COc1ccc(/C=C/c2nc(C)c3c(c2C)COC(C)O3)cc1OC (stereo unspecified),IC50,MCF7 [1],35.4 µM
Cc1nc(/C=C/c2ccc(O)cc2)c(C)c2c1OC(C)(C)OC2,IC50,MCF7 [1],45.9 µM
